# What was measured:
# [1] = tested on: reserpine-induced dyskinesia; assay: Rat reserpine-induced dyskinesia model; type: in vivo
# [2] = tested on: haloperidol-induced stiffness; assay: Haloperidol-induced rat Parkinson's disease stiffness model (stiffness latency on metal rod); type: in vivo
# Procedure: The animals required for the day were transferred from the rearing room to an operation room in advance, and were let to acclimate for at least 30 min before the test was initiated. […] After 30 minutes, the test animals were intraperitoneally injected with haloperidol or vehicle 2 without haloperidol, and put back to the original rearing cages. At 60 and 120 minutes after the injection of haloperidol or vehicle 2, the forelimbs of the rat were gently placed vertically on a horizontal metal rod with a length of 20.5 cm, a diameter of 1.2 cm, and a height of 8.5 cm above the workbench, then its hind limbs were gently placed on a test box, and timing started. When the rat moved or climbed down on the metal rod with forelimbs, the timing was stopped, and the duration for the two forelimbs of the rat to maintain the posture on the metal rod was recorded, i.e., being recorded as stiffness latency. If the rat's front paws were not put down, the observation was terminated after 600 sec, and the stiffness latency of this animal was recorded as 600 sec. When the rod climbing test was completed that day, 5 animals from each group were perfused and fixed, and whole brains were removed for preservation. Stiffness latency: the time for the two forelimbs of a rat to keep still on the metal rod. The longest stiffness latency was 600 sec. Stiffness rate %=(stiffness latency/600)*100% All measurement data were represented as mean±standard error of mean (mean±SEM), and check analysis was performed by Prism 8.0 statistical software.
# [3] = molecular target: T1, Human adenosine ADORA3 receptor membrane protein (Homo sapiens, UniProt P0DMS8); assay: Radioisotope ligand competitive binding, ADORA3 ([3H] HEMADO); conditions: ADORA3 (IC50, nM, n = 3), binding test
# T1 construct: purchased PerkinElmer ES-012-M400UA
# T1 sequence (P0DMS8 1-318): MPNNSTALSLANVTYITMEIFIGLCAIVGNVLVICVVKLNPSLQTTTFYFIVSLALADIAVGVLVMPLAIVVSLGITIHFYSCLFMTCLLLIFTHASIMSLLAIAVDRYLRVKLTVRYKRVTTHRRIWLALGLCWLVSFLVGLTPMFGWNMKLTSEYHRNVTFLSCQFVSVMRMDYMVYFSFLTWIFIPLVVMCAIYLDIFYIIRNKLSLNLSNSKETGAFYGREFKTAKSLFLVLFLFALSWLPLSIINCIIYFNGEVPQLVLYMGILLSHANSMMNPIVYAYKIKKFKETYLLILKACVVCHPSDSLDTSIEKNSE
# Procedure: ADORA3: 25 mM HEPES pH 7.4, 10 mM MgCl2, 1 mM CaCl2, 0.5% BSA
# 4) Preparation of compounds: the test compounds and the reference compounds were separately diluted with 100% DMSO. For the test compounds, the initial concentration was 10 μM, with double secondary wells; 4-fold gradient dilution was carried out at 10 points; and the final working concentration was 0.038 nM-10 μM (for the second and third detection of the test compound against an ADORA2A target, the initial concentration was 2 μM, with double secondary wells, 4-fold gradient dilution was carried out at 10 points, and the final working concentration was 0.0076 nM-2 μM). For the ADORA1, ADORA2A, ADORA2B, and ADORA3 reference compounds, the initial concentration was 1 μM, with double secondary wells, 4-fold gradient dilution was carried out at 10 points, and the final working concentration was 0.0038 nM-1 μM.
# 1 μL of a sample to be tested and 1 μL of a reference compound were added to a 96-well plate in sequence. […] 100 μL of cells and 100 μL of isotopes were added to all experimental wells. The 96-well plate was sealed; ADORA1, ADORA2B, and ADORA3 were incubated for 1 hour on a shaker (300 rpm) at room temperature (22° C.); and ADORA2A was incubated for 2 hours on a shaker (300 rpm) at room temperature (22° C.). At the same time, a GF/C filter plate was soaked with ADORA1, ADORA2A, ADORA2B, and ADORA3 by using 0.3% PEI for at least 30 minutes at room temperature, at 50 μL/well. After the incubation was completed, the incubated reaction system was collected onto the GF/C filter plate with a Harvester, washed 4 times and then dried for 0.5 hours in an oven at 50° C. The bottom of the dried GF/C filter plate was sealed with a film, 50 μL of scintillation solution was added to each well, which was then sealed with a Top-seal-A film. With Microbeta readings, the data was analyzed by GraphPad Prism 5.0.
# % Inhibition=100×(1−(Sample_raw value−Low control_Average)/(High control_Average−Low control_Average))
# The data was fitted with “log(inhibitor) vs response-variable slope” in GraphPad Prism 5.0 to obtain IC50.
# [4] = Solubility in biological vehicles (SGF, FaSSIF, FeSSIF) at 37° C., HPLC; type: physicochemical; conditions: for Solubility / solubility at 2 h: 2 h; for solubility at 0.5 h / solubility at 2 h: 37 °C, thermodynamic from solid
# Procedure: An Agilent HPLC 1260 series instrument was used in an HPLC analysis method. The HPLC method for testing solubility and stability was as follows:
# In the experiment, the solubilities of the free-base crystal form and the acetate crystal form were determined at 37° C. in biological vehicles (simulated gastric fluid (SGF), fasted state stimulated intestinal fluid (FaSSIF) and fed state stimulated intestinal fluid (FeSSIF)). 3 mg of a sample was added to a sample bottle, and 1 mL of biologically relevant vehicle was added to the same. The suspension was shaken at a speed of 500 rpm at 37° C.
# [5] = Pharmacokinetics of Compounds 27, 16, 14 and 22 in SD rats; type: in vivo; conditions: for AUC(0-t) / Cmax / half-life / clearance: Sprague-Dawley, rat, in vivo; for clearance: read-out: Cl—pred (converted)
# Description: WinNonlin® 6.4 was used as the calculation software for PK parameters.
# [6] = 15 mg/kg intragastric, 0-30 min
# [7] = 15 mg/kg intragastric, 0-60 min
# [8] = 15 mg/kg intragastric, 30-60 min
# [9] = 10 mg/kg intragastric, 60 min after haloperidol
# [10] = 10 mg/kg intragastric, 120 min after haloperidol
# [11] = fasted state simulated intestinal fluid (FaSSIF), fassif
# [12] = fed state simulated intestinal fluid (FeSSIF), fessif
# [13] = simulated gastric fluid (SGF), simulated gastric fluid, SGF
# [14] = 7.5 mg/kg intragastric, 0-30 min
# [15] = 7.5 mg/kg intragastric, 0-60 min
# [16] = 7.5 mg/kg intragastric, 30-60 min
# [17] = 30 mg/kg intragastric, 0-30 min
# [18] = 30 mg/kg intragastric, 0-60 min
# [19] = 30 mg/kg intragastric, 30-60 min
smiles,measurement,setting,value
"CCn1c(=O)c2c(nc(/C=C/c3ccc(OC)c(OC)c3)n2C)n(CC)c1=O [Istradefylline, reference compound]",Number of standings,[1]; [6],44.1 ± 7.9
same,Walking distance,[1]; [6],1.6 ± 0.6 m
same,Walking time,[1]; [6],19.6 ± 5.9 s
same,Number of standings,[1]; [7],95.7 ± 16.3
same,Walking distance,[1]; [7],2.9 ± 0.9 m
same,Walking time,[1]; [7],35.1 ± 10.1 s
same,Number of standings,[1]; [8],51.6 ± 9.7
same,Walking distance,[1]; [8],1.3 ± 0.4 m
same,Walking time,[1]; [8],32.0 ± 13.7 s
same,Stiffness rate,"[2]; 10 mg/kg intragastric, 60 min",0.2 ± 0.1%
same,Stiffness latency,[2]; [9],1.4 ± 0.8 s
same,Stiffness rate,"[2]; 10 mg/kg intragastric, 120 min",0.07 ± 0.05%
same,Stiffness latency,[2]; [10],0.4 ± 0.3 s
"Cn1nnc(-c2ccc(CCNc3nc(N)n4nc(-c5ccco5)nc4n3)cc2)n1 [Compound 40, N5-(4-(2-methyl-2H-tetrazol-5-yl)phenethyl)-2-(furan-2-yl)-[1,2,4]triazolo[1,5-a][1,3,5]triazine-5,7-diamine]",IC50,[3]; Table 10 (IC50),2000 ± 1030 nM
same,IC50,[3]; Table 11,1610 nM
"CC(=O)O.Nc1nc(NCCc2ccc(NC3COC3)cc2)nc2nc(-c3ccco3)nn12 [Acetate of Compound 22, 2-(furan-2-yl)-N5-(4-(oxetane-3-ylamino)phenethyl)-[1,2,4]triazolo[1,5-a][1,3,5]triazine-5,7-diamine acetate]",Solubility,"[4]; SGF, acetate",>2.887 mg/mL
same,solubility at 0.5 h,[4]; [11],9.3 µg/mL
same,solubility at 2 h,[4]; [11],9.9 µg/mL
same,solubility at 0.5 h,[4]; [12],33.1 µg/mL
same,solubility at 2 h,[4]; [12],33.8 µg/mL
same,solubility at 0.5 h,[4]; [13],> 2890 µg/mL
same,solubility at 2 h,[4]; [13],> 2890 µg/mL
same,Number of standings,[1]; [14],28.5 ± 7.1
same,Walking distance,[1]; [14],0.9 ± 0.3 m
same,Walking time,[1]; [14],9.3 ± 4.3 s
same,Number of standings,[1]; [15],56.7 ± 12.6
same,Walking distance,[1]; [15],2.0 ± 0.6 m
same,Walking time,[1]; [15],17.8 ± 7.5 s
same,Number of standings,[1]; [16],28.3 ± 6.9
same,Walking distance,[1]; [16],1.0 ± 0.3 m
same,Walking time,[1]; [16],16.2 ± 7.6 s
same,Number of standings,[1]; [6],51.9 ± 7.4
same,Walking distance,[1]; [6],1.8 ± 0.4 m
same,Walking time,[1]; [6],26.3 ± 5.6 s
same,Number of standings,[1]; [7],110 ± 12.7
same,Walking distance,[1]; [7],3.8 ± 0.6 m
same,Walking time,[1]; [7],48.5 ± 8.2 s
same,Number of standings,[1]; [8],58.2 ± 7.7
same,Walking distance,[1]; [8],2.0 ± 0.4 m
same,Walking time,[1]; [8],40.3 ± 15.6 s
same,Number of standings,[1]; [17],56.5 ± 9.6
same,Walking distance,[1]; [17],2.5 ± 1.0 m
same,Walking time,[1]; [17],35.8 ± 12.6 s
same,Number of standings,[1]; [18],97.9 ± 15.3
same,Walking distance,[1]; [18],3.9 ± 1.4 m
same,Walking time,[1]; [18],52.9 ± 17.5 s
same,Number of standings,[1]; [19],41.5 ± 6.7
same,Walking distance,[1]; [19],1.4 ± 0.4 m
same,Walking time,[1]; [19],33.2 ± 12.2 s
same,Stiffness rate,"[2]; 3 mg/kg intragastric, 60 min",1.6 ± 0.8%
same,Stiffness latency,"[2]; 3 mg/kg intragastric, 60 min after haloperidol",9.3 ± 4.5 s
same,Stiffness rate,"[2]; 3 mg/kg intragastric, 120 min",4.1 ± 1.9%
same,Stiffness latency,"[2]; 3 mg/kg intragastric, 120 min after haloperidol",24.8 ± 11.2 s
same,Stiffness rate,"[2]; 10 mg/kg intragastric, 60 min",0.1 ± 0.06%
same,Stiffness latency,[2]; [9],0.7 ± 0.4 s
same,Stiffness rate,"[2]; 10 mg/kg intragastric, 120 min",0.4 ± 0.2%
same,Stiffness latency,[2]; [10],2.6 ± 1.5 s
same,Stiffness rate,"[2]; 30 mg/kg intragastric, 60 min",0.1 ± 0.05%
same,Stiffness latency,"[2]; 30 mg/kg intragastric, 60 min after haloperidol",0.6 ± 0.3 s
same,Stiffness rate,"[2]; 30 mg/kg intragastric, 120 min",0.1 ± 0.07%
same,Stiffness latency,"[2]; 30 mg/kg intragastric, 120 min after haloperidol",0.6 ± 0.4 s
"Nc1nc(NCCc2ccc(NC3COC3)cc2)nc2nc(-c3ccco3)nn12 [Compound 22, 2-(furan-2-yl)-N5-(4-(oxetan-3-ylamino)phenethyl)-[1,2,4]triazolo[1,5-a][1,3,5]triazine-5,7-diamine]",IC50,[3]; Table 10 (IC50),872 ± 492 nM
same,IC50,[3]; Table 11,703 nM
same,Solubility,"[4]; SGF, listed as Free base",0.7121 mg/mL
same,solubility at 0.5 h,[4]; [11],3.7 µg/mL
same,solubility at 2 h,[4]; [11],4.2 µg/mL
same,solubility at 0.5 h,[4]; [12],7 µg/mL
same,solubility at 2 h,[4]; [12],8.8 µg/mL
same,solubility at 0.5 h,[4]; [13],622 µg/mL
same,solubility at 2 h,[4]; [13],712 µg/mL
same,Cl—F—pred,"[5]; PO, dose 3 (mg/kg)",1.52 L/h/kg
same,F,"[5]; PO, dose 3 (mg/kg)",39.49%
same,AUC(0-t),"[5]; IV, dose 1 (mg/kg)",1770 ng·h/mL
same,Cmax,"[5]; IV, dose 1 (mg/kg)",2350 ng/mL
same,half-life,"[5]; IV, dose 1 (mg/kg)",60 min
same,clearance,"[5]; IV, dose 1 (mg/kg)",9.5 mL/min/kg
same,AUC(0-t),"[5]; PO, dose 3 (mg/kg)",2100 ng·h/mL
same,Cmax,"[5]; PO, dose 3 (mg/kg)",580 ng/mL
same,half-life,"[5]; PO, dose 3 (mg/kg)",198 min
"COCCNc1ccc(CCNc2nc(N)n3nc(-c4ccco4)nc3n2)cc1 [Compound 27, 2-(furan-2-yl)-N5-(4-((2-methoxyethyl)amino)phenethyl)-[1,2,4]triazolo[1,5-a][1,3,5]triazine-5,7-diamine]",Cl—F—pred,"[5]; PO, dose 5 (mg/kg)",8.82 L/h/kg
same,F,"[5]; PO, dose 5 (mg/kg)",33.85%
same,AUC(0-t),"[5]; IV, dose 1 (mg/kg)",477 ng·h/mL
same,Cmax,"[5]; IV, dose 1 (mg/kg)",1340 ng/mL
same,half-life,"[5]; IV, dose 1 (mg/kg)",30.6 min
same,clearance,"[5]; IV, dose 1 (mg/kg)",36 mL/min/kg
same,AUC(0-t),"[5]; PO, dose 5 (mg/kg)",484 ng·h/mL
same,Cmax,"[5]; PO, dose 5 (mg/kg)",318 ng/mL
same,half-life,"[5]; PO, dose 5 (mg/kg)",262 min

# From US20230048888A1, “USE OF TRIAZOLOTRIAZINE DERIVATIVE IN TREATMENT OF DISEASES” (ZHEJIANG VIMGREEN PHARMACEUTICALS, LTD., priority 2019, published 2023)
